Values quoted from earlier work, collected in PubChem BioAssay AID1259410 (Chemical Carcinogenesis Research Information System (CCRIS), 2018).

Tested on: rodent tumor promotion studies, tumor incidence
Test: CCRIS tumor promotion studies
Settings: Route [Promoter]: ORAL

CCC1(c2ccccc2)C(=O)NC(=O)NC1=O
outcome (Carcinogen: DIMETHYLNITROSAMINE, 62-75-9, Doses [Carcinogen]: 5 UG/G ONCE, Doses [Promoter]: 0, 500 PPM IN THE DRINKING WATER FOR 24 WK BEGINNING POST CARCINOGEN DOSE (STUDY DURATION: 26 WK), Route [Carcinogen]: INTRAPERITONEAL, Species: MOUSE, Strain/Sex: B6C3F1/MALE): liver: adenoma | outcome (Carcinogen: METHYL(ACETOXYMETHYL)NITROSAMINE, 56856-83-8, Doses [Carcinogen]: 0.05 MMOL/KG IN 5 ML STERILE PHOSPHATE BUFFER ONCE, Doses [Promoter]: 0, 500 PPM IN DRINKING WATER BEGINNING 2 WK POST CARCINOGEN DOSE AND CONTINUING FOR 78 WK (STUDY DURATION: 80 WK), Route [Carcinogen]: INTRAPERITONEAL, Species: RAT, Strain/Sex: F344/MALE): thyroid: follicular cell adenoma or follicular cell carcinoma or c-cell tumor; l | outcome (Carcinogen: METHYLNITROSOUREA, Doses [Carcinogen]: 20 MG/KG 2/WK FOR 4 WK, Doses [Promoter]: 0.05% IN DIET FOR 32 WK, Route [Carcinogen]: INTRAPERITONEAL, Species: RAT, Strain/Sex: F344/MALE): thyroid gland: adenocarcinoma | outcome (Carcinogen: N,N-DIETHYLNITROSAMINE, 55-18-5, Doses [Carcinogen]: 75 MG/KG IN SALINE ONCE AT 5 WK OF AGE, Doses [Promoter]: 0, 500 PPM IN DIET FOR 45 WK BEGINNING 2 WK POST CARCINOGEN TREATMENT (STUDY DURATION: 47 WK), Route [Carcinogen]: INTRAPERITONEAL, Species: RAT, Strain/Sex: F344/MALE): liver: hepatocellular adenoma | outcome (Carcinogen: N,N-DIETHYLNITROSAMINE, 55-18-5, Doses [Carcinogen]: 75 MG/KG IN SALINE ONCE AT 5 WK OF AGE, Doses [Promoter]: 0, 500 PPM IN DIET FOR 46-72 WK BEGINNING 2 WK POST CARCINOGEN TREATMENT (STUDY DURATION: 46-72 WK), Route [Carcinogen]: INTRAPERITONEAL, Species: RAT, Strain/Sex: F344/MALE): liver: hepatocellular adenoma | outcome (Carcinogen: N-BIS(2-HYDROXYPROPYL)NITROSAMINE, Doses [Carcinogen]: 70 MG/100 G BW 1/WK FOR 4 OR 6 WK, Doses [Promoter]: 500 PPM IN DIET FROM WK 5-16 OR 7-18, Route [Carcinogen]: SUBCUTANEOUS, Species: RAT, Strain/Sex: WISTAR/MALE): thyroid gland: follicular, papillary, and solid adenoma, carcinoma | outcome (Carcinogen: N-METHYL-N-NITROSOUREA, 684-93-5, Doses [Carcinogen]: 30 MG/KG BW ONCE AT 3 MO OF AGE, Doses [Promoter]: 0, 50 MG/100 G IN DIET FOR 7 MO BEGINNING 7 MO POST CARCINOGEN DOSE (STUDY DURATION: 14 MO), Route [Carcinogen]: INTRAVENOUS, Species: RAT, Strain/Sex: LOBUND-WISTAR/MALE): prostate/seminal vesicle: adenocarcinoma | outcome (Carcinogen: N-METHYL-N-NITROSOUREA, 684-93-5, Doses [Carcinogen]: 30 MG/KG BW ONCE, Doses [Promoter]: 0, 0.5% IN DIET FOR DURATION OF STUDY BEGINNING POST CARCINOGEN DOSE(STUDY DURATION: 14 MO), Route [Carcinogen]: INTRAVENOUS, Species: RAT, Strain/Sex: LOBUND-WISTAR/MALE): lung: carcinoma, prostate/seminal vesicles: tumor | outcome (Carcinogen: N-NITROSODIETHYLAMINE, 55-18-5, Doses [Carcinogen]: 5 UG/G BW ONCE AT 15 D OF AGE, Doses [Promoter]: 0, 500 PPM IN DRINKING WATER BEGINNING AT 4 WK OF AGE AND CONTINUING FOR DURATION OF STUDY (STUDY DURATION: 28 WK), Route [Carcinogen]: INTRAPERITONEAL, Species: MOUSE, Strain/Sex: C3H/HENCR/FEMALE): liver: hepatocellular adenoma | outcome (Carcinogen: N-NITROSODIETHYLAMINE, 55-18-5, Doses [Carcinogen]: 5 UG/G BW ONCE AT 15 D OF AGE, Doses [Promoter]: 0, 500 PPM IN DRINKING WATER BEGINNING AT 4 WK OF AGE AND CONTINUING FOR DURATION OF STUDY (STUDY DURATION: 28 WK), Route [Carcinogen]: INTRAPERITONEAL, Species: MOUSE, Strain/Sex: C3H/HENCR/MALE): liver: hepatocellular adenoma | outcome (Carcinogen: N-NITROSODIETHYLAMINE, 55-18-5, Doses [Carcinogen]: 75 MG IN STERILE SALINE ONCE, Doses [Promoter]: 0, 500 PPM IN DIET BEGINNING 2 WK POST CARCINOGEN DOSE AND CONTINUING FOR DURATION OF STUDY (STUDY DURATION: 78 WK), Route [Carcinogen]: INTRAPERITONEAL, Species: RAT, Strain/Sex: F344/MALE): liver: hepatocellular adenoma or carcinoma; thyroid gland: follicular cell adeno | outcome (Carcinogen: N-NITROSODIETHYLAMINE, 55-18-5, Doses [Carcinogen]: 75 MG ONCE, Doses [Promoter]: 0, 500 PPM IN DRINKING WATER BEGINNING 2 WK POST CARCINOGEN DOSE AND CONTINUING FOR DURATION OF STUDY (STUDY DURATION: 5, Route [Carcinogen]: INTRAPERITONEAL, Species: RAT, Strain/Sex: F344/MALE): liver: hepatocellular adenoma | outcome (Carcinogen: N-NITROSODIETHYLAMINE, 55-18-5, Doses [Carcinogen]: 75 MG ONCE, Doses [Promoter]: 0, 500 PPM IN DRINKING WATER BEGINNING 2 WK POST CARCINOGEN DOSE AND CONTINUING FOR DURATION OF STUDY (STUDY DURATION: 7, Route [Carcinogen]: INTRAPERITONEAL, Species: RAT, Strain/Sex: F344/MALE): liver: hepatocellular carcinoma; thyroid gland: follicular cell adenoma or adeno | outcome (Carcinogen: N-NITROSODIETHYLAMINE, 55-18-5, Doses [Carcinogen]: 90 MG/KG BW ONCE, Doses [Promoter]: 0, 500 PPM IN DIET FOR 53 WK BEGINNING 2 WK POST CARCINOGEN DOSE (STUDY DURATION: 55 WK), Route [Carcinogen]: INTRAPERITONEAL, Species: MOUSE, Strain/Sex: D2B6F1/MALE): liver: hepatocellular adenoma, hepatocellular carcinoma, hepatoblastoma | outcome (Carcinogen: N-NITROSODIETHYLAMINE, 7119-92-8, Doses [Carcinogen]: 80 MG/KG ONCE, Doses [Promoter]: 0, 500 PPM IN DIET BEGINNING 1 WK POST CARCINOGEN DOSE AND CONTINUING FOR 168 D (STUDY DURATION: 259 D), Route [Carcinogen]: INTRAPERITONEAL, Species: MOUSE, Strain/Sex: B6C3F1/MALE): liver: hepatocellular adenoma or carcinoma | outcome (Carcinogen: TAMOXIFEN, 10540-29-1, Doses [Carcinogen]: 420 PPM IN DIET FOR 3 MO, Doses [Promoter]: 0, 0.1% (W/V) IN DRINKING WATER FOR LIFE BEGINNING POST CARCINOGEN TREATMENT (STUDY DURATION: LIFETIME), Route [Carcinogen]: ORAL, Species: RAT, Strain/Sex: WISTAR/FEMALE): liver: tumor
